Laboratory results reported in PMC8175350, “Drug repurposing screens identify chemical entities for the development of COVID-19 interventions” (Nature Communications, 2021).
Where “and” joins values, the source holds several entries; their conditions need not be identical. Equal entries are not always repeated. Where two headings read alike, the source gives them in different places.

Key:
SARS-CoV-2 [1] = assay: microbe, parasite or virus in culture; type: cell-based; settings: for %infected: HeLa-ACE2, replicates n=1, n=2
[2] = Uninfected HeLa-ACE2 24 h live/dead cytotoxicity counter screen; type: cell-based, human; settings: human, uninfected HeLa-ACE2 cells, reconfirmed hits; read-out: HeLa-ACE2 Uninf. cells CC50
HeLa-ACE2 cells [3] = assay: as above; type: cell-based, human; settings: for cytotox: HeLa-ACE2
SARS-CoV-2 [4] = assay: microbe, parasite or virus in culture; type: cell-based; settings: for %infected: Calu-3, replicates n=1, n=2
SARS-CoV-2 [5] = assay: microbe, parasite or virus in culture; type: cell-based; settings: for TOA: HeLa-ACE2, replicates n=1
SARS-CoV-2 [6] = type: cell-based; settings: 72 hpi
HeLa-ACE2 cells [7] = assay: Total cell count in the HeLa-ACE2 TOA assay; type: cell-based; settings: Homo sapiens
From the text: Supplement 41467_2021_23328_MOESM3_ESM.xlsx, sheet "Table S1" | column: HeLa-ACE2 TOA cell count

Calu-3 cells [8] = tested on: Calu-3 cells
HeLa-ACE2 cells [9] = assay: cells; settings: Homo sapiens, HeLa-ACE2, read-out: HeLa-ACE2 cell count EC50 GeoMean
Calu-3 cells [10] = assay: cells; settings: Homo sapiens
in vitro = settings: human
[11] = cited from earlier work

O=c1nc(NO)ccn1[C@@H]1O[C@H](CO)[C@@H](O)[C@H]1O [N-hydroxycytidine]
%infected (SARS-CoV-2 [1]; concentration log[M] -5.01818): -95.9068% and -95.703% and -94.602% and -97.3369% and -96.6026% and -97.2941% | %infected (SARS-CoV-2 [1]; concentration log[M] -5.54106): -65.3775% and -59.3515% and -63.9298% and -52.8807% and -12.9328% and -65.202% | %infected (SARS-CoV-2 [1]; concentration log[M] -6.01818): -30.1084% and -28.1968% and -26.2247% and 6.562% and 13.7937% and -28.207% | %infected (SARS-CoV-2 [1]; concentration log[M] -6.42366): -20.845% and -20.4031% and 6.3056% and 22.7531% and 23.3232% and -10.0334% | %infected (SARS-CoV-2 [1]; concentration log[M] -6.90066): -9.321% and -9.37% and 63.7122% and 19.7824% and -5.072% and -8.1% | %infected (SARS-CoV-2 [1]; concentration log[M] -7.37799): -5.474% and -4.047% and 10.6164% and 29.7413% and 17.9839% and -7.442% | %infected (SARS-CoV-2 [1]; concentration log[M] -7.85511): -5.151% and -0.8478% and 5.043% and 11.903% and -2.081% and 8.512% | %infected (SARS-CoV-2 [1]; concentration log[M] -8.34746): 2.419% and 1.409% and -2.874% and 18.1053% and 10.6681% and -1.579% | Emax (SARS-CoV-2 [1]; Severe acute respiratory syndrome coronavirus 2, HeLa-ACE2, 24 h, curve plateau at infinite concentration, read-out: HeLa-ACE2 CoV-2 Sinf Average): 100% | EC50 (SARS-CoV-2 [1]; Severe acute respiratory syndrome coronavirus 2, HeLa-ACE2, reconfirmed hits, read-out: HeLa-ACE2 SARS-CoV-2 EC50): 2070 nM | CC50 at 24 h [2]: > 37.5 µM | cytotox (HeLa-ACE2 cells [3]; concentration log[M] -4.40012, replicates n=1, n=2): -52.5894 and -47.3606 and -59.8571 and -45.9651 and -54.0657 and -40.7828 | cytotox (HeLa-ACE2 cells [3]; concentration log[M] -4.82681, replicates n=1, n=2): -38.4391 and -39.4796 and -38.1429 and -39.2039 and -43.0802 and -30.2326 | cytotox (HeLa-ACE2 cells [3]; concentration log[M] -5.30277, replicates n=1, n=2): -30.8534 and -12.119 and -16 and -17.6118 and -29.9408 and -19.0017 | cytotox (HeLa-ACE2 cells [3]; concentration log[M] -5.82681, replicates n=1, n=2): -4.449 and -6.9145 and -4 and -19.1385 and -7.754 and 0.2836 | cytotox (HeLa-ACE2 cells [3]; concentration log[M] -6.25414, replicates n=1, n=2): -16.849 and -13.6059 and -16.5714 and -13.1407 and -8.078 and -16.506 | cytotox (HeLa-ACE2 cells [3]; concentration log[M] -6.73049, replicates n=1, n=2): -10.2845 and 8.996 and -3.286 and -2.1265 and -9.908 and -9.472 | cytotox (HeLa-ACE2 cells [3]; concentration log[M] -7.25727, replicates n=1, n=2): 1.386 and -4.089 and -25.4286 and -12.8135 and -14.6473 and -10.7204 | cytotox (HeLa-ACE2 cells [3]; concentration log[M] -7.68403, replicates n=1, n=2): -8.534 and -5.279 and -6.286 and -2.672 and -11.8471 and 1.418 | cytotox (HeLa-ACE2 cells [3]; concentration log[M] -8.16052, replicates n=1, n=2): -5.325 and 4.535 and -3.571 and -9.869 and -22.4017 and -12.0817 | cytotox (HeLa-ACE2 cells [3]; concentration log[M] -8.59517, replicates): -2.261 and -3.197 and -3.429 and -6.707 and -1.077 and -11.9682 | HeLa-ACE2 uninfected cytotoxicity Sinf Average (HeLa-ACE2 cells [3]; curve plateau at infinite concentration): -100% | %infected (SARS-CoV-2 [4]; concentration log[M] -5.00096): -104.882% and -104.039% and -104.073% and -87.0522% and -95.3104% and -95.1991% | %infected (SARS-CoV-2 [4]; concentration log[M] -5.47808): -102.424% and -94.8216% and -96.2613% and -79.6455% and -88.2245% and -78.3438% | %infected (SARS-CoV-2 [4]; concentration log[M] -6.08014): -48.1883% and -55.6504% and -62.6482% and -43.1506% and -54.549% and -44.7088% | %infected (SARS-CoV-2 [4]; concentration log[M] -6.42922): -25.3967% and -10.7735% and -12.1745% and -21.3919% and -25.2933% and -26.102% | %infected (SARS-CoV-2 [4]; concentration log[M] -6.90623): 2.702% and -5.189% and -14.5454% and -5.7089% and 20.5633% and -23.5818% | %infected (SARS-CoV-2 [4]; concentration log[M] -7.50836): 7.0582% and -3.1% and 10.044% and -11.1778% and -10.264% and 16.3735% | %infected (SARS-CoV-2 [4]; concentration log[M] -7.85886): -6.015% and 34.2889% and -1.001% and -2.481% and -24.9588% and 14.4808% | %infected (SARS-CoV-2 [4]; concentration log[M] -8.33602): 34.4513% and -7.593% and -0.3699% and -1.01% and 8.564% and 15.1555% | Emax (SARS-CoV-2 [4]; Severe acute respiratory syndrome coronavirus 2, Calu-3, 48 h, curve plateau at infinite concentration, read-out: Calu-3 CoV-2 Sinf Average): 102% | EC50 (SARS-CoV-2 [4]; Severe acute respiratory syndrome coronavirus 2, Calu-3, reconfirmed hits, read-out: Calu-3 SARS-CoV-2 EC50): 803 nM | TOA (SARS-CoV-2 [5]; concentration log[M] -5.01818): -88.6412 and -82.7703 and -80.6006 | TOA (SARS-CoV-2 [5]; concentration log[M] -5.54106): -32.1719 and -27.0134 and -25.6358 | TOA (SARS-CoV-2 [5]; concentration log[M] -6.01818): -19.1217 and -14.6661 and -4.943 | TOA (SARS-CoV-2 [5]; concentration log[M] -6.42366): 4.0678 and -1.902 and 3.9754 | TOA (SARS-CoV-2 [5]; concentration log[M] -6.90066): 9.161 and 4.654 and 6.517 | TOA (SARS-CoV-2 [5]; concentration log[M] -7.37799): 8.185 and 12.3603 and -5.097 | TOA (SARS-CoV-2 [5]; concentration log[M] -7.85511): -1.637 and 10.875 and -15.0843 | TOA (SARS-CoV-2 [5]; concentration log[M] -8.34746): 4.125 and 6.481 and 1.9398 | Emax (SARS-CoV-2 [5]; Severe acute respiratory syndrome coronavirus 2, HeLa-ACE2, 10 h, curve plateau at infinite concentration, read-out: HeLa-ACE2 TOA CoV-2 Sinf Average): 100% | EC50 (SARS-CoV-2 [5]; Severe acute respiratory syndrome coronavirus 2, HeLa-ACE2, read-out: HeLa-ACE2 TOA CoV-2 EC50 GeoMean): 4.06 µM | reduction in apical viral loads (SARS-CoV-2 [6]): > 1 log | Emax (HeLa-ACE2 cells [7]; HeLa-ACE2, 10 h, read-out: HeLa-ACE2 TOA cell count Sinf Average): 100% | EC50 (HeLa-ACE2 cells [7]; HeLa-ACE2, read-out: HeLa-ACE2 TOA cell count EC50 GeoMean): > 9.59 µM | uninfected Calu-3 CC50 (Calu-3 cells [8]): 29.85 ×÷ 1 (n=2) μM | Calu-3 uninfected cytotoxicity Sinf Average (Calu-3 cells [8]; human, 48 h): -100% | EC50 (HeLa-ACE2 cells [9]): > 9.59 µM | Emax (Calu-3 cells [10]; Calu-3, 48 h, read-out: Calu-3 cell count Sinf Average): 100% | EC50 (Calu-3 cells [10]; Calu-3, read-out: Calu-3 cell count EC50 GeoMean): 2300 nM | CC50 at 48 h (in vitro; Calu-3 Uninf. cells CC50 (µM)): > 29.9 µM | CC50 at 48 h (in vitro; Calu-3 uninfected cytotoxicity CC50 GeoMean): 29.9 µM | Approx. t1/2 ([11]; NHP, ref [45]): 1 h | Cmax ([11]; in vivo, po): 3.3 µM
